# Laboratory results from US6197753A, “Pyranoside derivatives” (Boehringer Ingelheim KG, priority 1999, dated 2001).
# Biological target: LTB4 -receptor (Homo sapiens, UniProt Q15722)
# Assay: receptor binding test
# Description: The compounds according to the invention are potent LTB4 -antagonists.In particular the compound of Example 1 is obtained in vivo as a metabolite of an LTB4 -antagonistic compound and in the receptor binding test it has a Ki -value of 1.0 nM.
# The activity ratios may be investigated pharmacologically and biochemically using tests such as those described in WO 93/16036, pp. 15 to 17 --the contents of which are referred to herein.
# Sequence of LTB4 -receptor (Q15722 whole entry): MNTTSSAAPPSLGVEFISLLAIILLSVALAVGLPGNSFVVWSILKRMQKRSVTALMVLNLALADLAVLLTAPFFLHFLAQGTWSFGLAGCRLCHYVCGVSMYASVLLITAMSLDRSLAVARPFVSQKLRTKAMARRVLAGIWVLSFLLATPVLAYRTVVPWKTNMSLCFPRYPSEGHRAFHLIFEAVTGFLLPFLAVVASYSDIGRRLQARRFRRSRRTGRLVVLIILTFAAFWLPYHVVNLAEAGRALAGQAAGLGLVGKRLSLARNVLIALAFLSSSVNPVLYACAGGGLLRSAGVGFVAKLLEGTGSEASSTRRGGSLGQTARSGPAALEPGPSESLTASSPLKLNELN
structure (smiles),measurement,value
"CC(C)(c1ccc(OCc2cccc(COc3ccc(C(=N)N)cc3)c2)cc1)c1ccc(O[C@@H]2O[C@H](C(=O)O)[C@@H](O)[C@H](O)[C@H]2O)cc1 [Example 1, 4-[[3-[[4-[1-(4-hydroxyphenyl)-1-methylethyl]phenoxy]methyl]phenyl]methoxy]-benzenecarboximidamide-O-gluctironide]",Ki,1 nM
